Each structure is given as a SMILES string. ≈ marks a conversion by molar mass, not a printed value.

Common to all, as to type: functional
A short description of assay [1]: fT>MIC in Pseudomonas aeruginosa infected patient at 2 g,iv administered as 3 hrs infusion every 8 hrs.
Assay [2] is described as follows: fT>MIC in Pseudomonas aeruginosa infected patient.
The subject of assay [3] is Pseudomonas aeruginosa. Kind of assay: Antimicrobial activity against Pseudomonas aeruginosa isolated from infected patient by Etest method.

On to `CO/N=C(\C(=O)N[C@@H]1C(=O)N2C(C(=O)[O-])=C(C[N+]3(C)CCCC3)CS[C@H]12)c1csc(N)n1` [CEFEPIME], for which the “fT>MIC” value is listed as over 60% in assay [1] and 85.2% in assay [2]. Besides, the MIC50 in assay [3] is 3 µg/mL (≈ 6.24 µM). Also, the MIC90 in assay [3] came out at 16 µg/mL (≈ 33.3 µM).

Values taken from ChEMBL document CHEMBL1255390, “Clinical pharmacodynamics of cefepime in patients infected with Pseudomonas aeruginosa” (2010).
